One data set has as its system SK28 xenografted tumors. Description: Radiosensitization of SK28 melanoma xenografted on nude mice. Particulars: SK, 6 × 5 Gy, 6 × 60 μg (3 nmole); for Relative risk: reference C* (Mock + irradiation). The data set is classed as in vivo. As to the method: The protocol of Hep2 was described in FIG. 4.3. Other tumors were treated by a modified protocol where a 5 Gy fractionated irradiation was applied in three consecutive days, and followed four day rest, and the treatment was repeated once. The total irradiation dose (6×5 Gy) is equal to that of the protocol used to treat Hep2 tumor (15×2 Gy).
Descriptive analyses of the tumor response were performed for each treatment and each tumor type. Day 1 was the day of the first treatment session. […] Median lifetime was estimated according to the Kaplan-Meier method. TGD was calculated by subtracting the mean tumor volume quadrupling time of the control group from tumor volume quadrupling times of individual mice in each treated group. The mean TGD was calculated for each treated group using the individual measurements.
The analysis used S-Plus 6.2 version software (MathSoft Inc., Seattle, Wash.) and statEL (ad Science, Paris, France). A global Log Rank was first performed for each group with a same tumor type. Then treatments with Dbait were compared to the mock-treated control. All tests were considered significant at the 0.05 significance level.

The subject of the next data set is Hela cells. Description: Clonogenic survival assay of Hela cells after 4×0.5 Gy irradiation. Format: cell-based, human. Conditions: 4×0.5 Gy spaced 2 hours, Dbait transfected with Superfect (83 nM or 2 μg). As to the method: Exponentially growing cells in six-well plates were harvested and incubated with […] of complete DMEM containing a mixture of Dbait molecules and Superfect reagent (Qiagen, Courtaboeuf, France) in a ratio of 10 μl Superfect per μg DNA. After 5 h at 37° C. under standard conditions, the cells were washed with PBS and complete DMEM was added. Where indicated, cells were exposed to irradiation either in one session (10 Gy) 5 h after the beginning of transfection or in four sessions of 0.5 Gy administered with a ^137Cs unit (1 Gy/min) 3, 4, 5 and 6 h after the beginning of transfection and allowed to grow for two weeks. When plasmid integration was measured, 2 μg of plasmid was added to Dbait transfection and puromycin (1.7 μg/ml) was added to the growth medium 48 h after transfection. Plasmid transfection efficiency was estimated by analyzing 10,000 cells for GFP expression on a FACScan flow cytometer (FACSalibur, Beckton-Dickinson, USA).
Upon 8 hours transfection of Dbait molecules in Hela cells and four irradiation with 0.5 Gy fractionated irradiation spaced 2 hours (4×0.5 Gy), performed with γ-rays from a ^137Cs source, a significant reduction of clonogenic survival was observed as compared to untransfected cells. The results are given on FIG. 2.1 wherein Panel A gives the dose-dependence of normalized survival clone number in the presence of Dbait32 (SEQ ID NO: 1) and Dbait32H (SEQ ID NO: 1), and Panel B, the normalized survival clone number in the presence of different Dbait molecules at 83 nM (concentration in culture medium). Cell culture was in MEM supplemented with 10% serum. Superfect (Qiagene) was used as transfection agent according to the manufacturer's instruction.
Clonogenic survival was estimated as the number of treated cells forming colonies on the number of untreated cells.

For a further data set, the system named is GMA32 cells. Put plainly: Clonogenicity (clonal survival) assay in GMA32 cells with irradiation or mitotic inhibitors. Format: cell-based, Chinese hamster. As to the method: The GMA32 Chinese hamster fibroblast cells permissive of DNA breaks were maintained in MEM medium (Gibco) supplemented with 1 mM sodium pyruvate, 2 mM glutamine, 1×MEM non essential amino acids, 1× penicillin/streptomycin and 10% horse serum. Typically, 2×10^5 to 4×10^5 cells were seeded in medium without antibiotics, in 5 cm diameter Petri dishes 24 hours before the transfection of different Dbait molecules (4.5 μg) with lipofectamine 2000 (LifeTechnologies) as transfection agent (in a 1:3 ratio), according to the manufacturer's instructions. At the end of the transfection the cells were either irradiated (4 Gy) or treated with mitotic inhibitors: nocodazole (200 nM), navelbine (100 nM) or taxol (200 nM).
About 16 hour later the drug was removed and the cells were allowed to recover. Cell irradiation was performed with γ-rays from a ^137Cs source. After a 24 hours recovery, the cells were collected and used either for FACS, western blot analyses or to determine the clonogenicity (survival) and the effect of each treatment.
The effect of radiosensitization and chemosensitization of Dbait molecules in GMA32 cells was evaluated by clonogenicity (clonal survival) assay. For the clonogenicity assay, serial dilutions were made after counting the cells to seed 5 cm Petri dishes with different amounts of cells. The number of cells range from 100-200 (control cells) to 3000 (transfected or/and treated cells). Ten days after, the cells (forming clone) were fixed with 4% paraformaldehyde (20 minutes), then colored with methylene blue (15 minutes), and the number of clone in each plate (in triplicates) was scored.
These drugs are known as potent inhibitors of either polymerization or depolymerization of microtubules. Dbait32 (SEQ ID NO: 1) and Dait32H (SEQ ID NO: 1) were able to enhance to cytotoxic activity of these mitotic inhibitors.

Another data set deals with T1, DNA-PK (Homo sapiens, UniProt P12956+P13010+P78527).
T1 construct: Increasing amounts of Hep2 nuclear extract (cleaned of endogenous DNA by DEAE-Sepharose filtration) were assayed; endogenous in cells; host or cells: Hep2 cells (nuclear extract, DNA removed by DEAE-Sepharose filtration)
Put plainly: DNA-dependent protein kinase (DNA-PK) activity assay in Hep2 nuclear extract. The data set is classed as biochemical. Conditions: 2 μg Dbait, 1.5 μg Hep2 nuclear protein extract. As to the method: DNA-PK activity was monitored using the kit SignaTECT DNA-dependent Protein Kinase Assay System (Promega, Madison, USA). Increasing amounts of Hep2 nuclear extract (cleaned of endogenous DNA by DEAE-Sepharose filtration) were assayed in the presence of 250 nM Dbait. Extract, biotinylated peptide substrate and various amount of nuclear extract were incubated 5 minutes at 30° C. with (γ-^32P)ATP according to manufacturer indications. The biotinylated substrate was capture on streptavidine membrane, washed and counted in a scintillation counter. Percentage of phosphorylation is calculated by dividing the bound radioactivity by the total count of (γ-^32P)ATP per sample. Reactions (10 μl) were carried out in 60 mM KOAc, 100 μg/ml BSA, 0.5 mM Mg(Cl)2, 1 μl T4 DNA ligase 10× buffer (Promega, Madison, USA). Nuclear extract and Dbait were incubated 2 minutes before addition of ^32P-labeled DNA (10 ng). Samples were incubated various time at 37° C. before ligation being stopped by 20 mM EDTA and 1 mg/ml Proteinase K addition. Ligation products were analyzed by electrophoresis through 0.7% agarose gels followed by autoradiography and quantification by phosphorimaging.
The kinase activity depended directly on the length and structure of the double-stranded ‘stem’ of the Dbait molecule. […] In addition, various backbone modifications (phosphothioate, methyphosphonate, 3′-3′ linkage) at the free blunt end (up to 3-bp), as well as the internally tagged ligands (e.g. fluorescent dyes), are capable of activating DNA-PK activity.

Experimental findings from patent US7476729B2, “Dbait and uses thereof” (Institut Curie, priority 2003, dated 2009) are described below.

Turning to “Dbait32H: hairpin double strand DNA with a stem of 32-bp, hexaethyleneglycol linker, phosphorothioate at the free blunt end (DNA ACGCACGGGTGTTGGGTCGTTTGTTCGGATCT; DNA, backbone not given here; hairpin, hexaethyleneglycol loop, 3-bp phosphorothioate at free blunt end)”, in the data set with SK28 xenografted tumors, the “Mean % TGD” value worked out at 422%, the “Mean TGD” value is 64, the “Median survival time” value worked out at 176 days and the “Number of cured mice” value is 2. Besides, the Relative risk in the data set with SK28 xenografted tumors was 0.22. Further, in the data set with Hela cells, the clonogenic survival result is recorded as “significantly reduced clonogenic survival”. Also, the “chemosensitization (clonal survival)” value in the data set on GMA32 cells (GMA32, 200 nM nocodazole, 100 nM navelbine (vinorelbine) or 200 nM taxol (paclitaxel)) is reported as “chemosensitization was also observed”. Besides, in the data set with GMA32 cells (GMA32, 4 Gy irradiation), the “radiosensitization (clonal survival)” value is on record as “radiosensitization to 4 Gy irradiation was observed”.

For “Dbait16H: hairpin double strand DNA with a stem of 16-bp (DNA ACGCACGGGTGTTGGG; DNA, backbone not given here; hairpin DNA with hexaethyleneglycol loop, 3-bp phosphorothioate at free blunt end)”, the “DNA-PK activation (kinase activity)” value with DNA-PK is “inefficient”.

With “Dbait8H: hairpin double strand DNA with a stem of 8-bp (DNA ACGCACGG; DNA, backbone not given here; hairpin, hexaethyleneglycol loop, 3-bp phosphorothioate at free blunt end)”, in the data set with SK28 xenografted tumors, the “Mean % TGD” value amounted to 194%, the “Mean TGD” value is on record as 19, the “Median survival time” value worked out at 76 days and the Relative risk turned out to be 0.68. In the data set with DNA-PK, the “DNA-PK activation (kinase activity)” value is on record as “inefficient”.
